Reference: patent publication US20070135374A1, “Composition for promoting collagen production” (OTSUKA PHARMACEUTICAL CO., LTD., priority 2003, published 2007)

Assays:
[1] = tested on: human skin fibroblasts; test: Collagen production promoting effect of AMP2Na on cultured human skin fibroblasts (PICP EIA), Test Example 1; assay type: cell-based; conditions: 2 days culture, culture supernatant, FIG. 1
Description: Evaluation of the collagen production promoting effect of adenosine monophosphate disodium on cultured human skin fibroblasts.
Primary-cultured human skin fibroblasts (manufactured by Kurabo Industries, Ltd.) were cultured in a 10 cm petri dish, and the cultured cells were collected in the subconfluent state and then freeze-preserved. Using the freeze-preserved cells, an evaluation of the collagen production promoting effect of adenosine monophosphate disodium (hereinafter, referred to as “AMP2Na) was conducted. In the following, the proportion of AMP2Na was based on the concentration of AMP.
1) The freeze-preserved cells were dissolved in an LSGS (Low Serum Growth Supplement)-containing liquid culture medium 106S (manufactured by Kurabo Industries, Ltd.), and the cell concentration and medium amount were adjusted to 30000 cells/100 μl. 100 μl of thus obtained cell-containing liquid was poured into each well of a test plate. […]
(§1) 4) Two days after culture initiation, the culture supernatant of each well was collected, and the amount of Procollagen type I C-peptide (PICP) was determined based on the amount of collagen in the culture supernatant using a Procollagen type I C-peptide (PIP) EIA Kit (manufactured by Takara Bio Inc.).

[2] = tested on: human skin fibroblasts; test: Collagen production promoting effect of combined use of AMP2Na and UMP2Na on cultured human skin fibroblasts (PICP EIA), Test Example 2; assay type: cell-based
Description: 1) The freeze-preserved cells were dissolved in an LSGS (Low Serum Growth Supplement)-containing liquid culture medium 106S (manufactured by Kurabo Industries, Ltd.), and the cell concentration and medium amount were adjusted to 30000 cells/100 μl. 100 μl of thus obtained cell-containing liquid was poured into each well of a test plate.
2) AMP2Na solutions of various concentrations were prepared using a sterilized phosphate buffer solution, and then filtered through a filter, followed by sterilization. The resultants were added to a liquid medium 106S (manufactured by Kurabo Industries, Ltd.) to prepare AMP2Na-containing culture media of various concentrations (0 to 1×10^−5 w/v %).
3) Twenty four hours after injecting cells into the plate wells, it was confirmed that human fibroblasts adhered to the wells, and the medium was removed from each well. Subsequently, an AMP2Na-containing culture medium (200 μl) of one of various concentrations prepared in 2) above was added to each well. The mixtures were cultured at 37° C. under 5% CO2 for two days.
as §1
Evaluation of the collagen production promoting effect of the combined use of adenosine monophosphate disodium and uridine monophosphate disodium on cultured human skin fibroblasts.
The evaluation of the collagen production promoting effect of cultured human skin fibroblasts was conducted following the same procedure of Test Example 1 above except for using such media. In Table 1, the proportions of AMP2Na and UMP2Na were based on the concentration of AMP and UMP, respectively.

Row | SMILES | PICP amount relative to cells cultured in the AMP-free medium ([1]; AMP2Na 1×10^−5 w/v % in medium) | PICP amount as compared with cells cultured in an AMP-free medium ([1]; AMP2Na 1×10^−8 to 1×10^−5 w/v % in medium) | action of promoting collagen production (PICP concentration) ([2]; AMP2Na alone 1×10^−6 w/v % (test medium 2) vs test medium 4, FIG. 2) | action of promoting collagen production (PICP concentration) ([2]; UMP2Na alone 1×10^−8 w/v % (test medium 3) vs test medium 4, FIG. 2) | potentiation of the action of promoting collagen production of AMP2Na (PICP concentration) ([2]; combined use: AMP2Na 1×10^−6 w/v % + UMP2Na 1×10^−8 w/v % (test medium 1), FIG. 2)
1 | Nc1ncnc2c1ncn2[C@@H]1O[C@H](COP(=O)([O-])[O-])[C@@H](O)[C@H]1O.[Na+].[Na+] [AMP2Na, adenosine monophosphate disodium] | about 1.4 times | increased | has an action of promoting collagen production | – | –
2 | O=c1ccn([C@@H]2O[C@H](COP(=O)([O-])[O-])[C@@H](O)[C@H]2O)c(=O)[nH]1.[Na+].[Na+] [UMP2Na, uridine monophosphate disodium] | – | – | – | no action of promoting collagen production | sharply potentiates
